Assay results as given in ChEMBL document CHEMBL1138048, “Synthesis and anticancer activity of brefeldin A ester derivatives” (J Med Chem, 2006).

Tests used:
A549 = assay: Antiproliferative activity against human A549 cell line; assay type: functional
SN12C = assay: Antiproliferative activity against human SN12C cell line; assay type: functional
UACC-62 = assay: Antiproliferative activity against human UACC62 cell line; assay type: functional
[1] = test system: Panel NCI-60 (60 carcinoma cell lines); assay: Antiproliferative activity against NCI60 cell line; assay type: functional; details: Homo sapiens
MCF7 = assay: Antiproliferative activity against human MCF7 cell line; assay type: functional
OVCAR-3 = assay: Antiproliferative activity against human OVCAR-3 cell line; assay type: functional
HCT-116 = assay: Antiproliferative activity against HCT116 cell line; assay type: functional; details: Homo sapiens
SF-539 = assay: Antiproliferative activity against human SF539 cell line; assay type: functional
PC-3 = assay: Antiproliferative activity against human PC3 cell line; assay type: functional
[2] = Half life in rat plasma; assay type: ADME, cell-free

| SMILES | GI50 (A549) | GI50 (SN12C) | GI50 (UACC-62) | GI50 [1] | GI50 (MCF7) | GI50 (OVCAR-3) | GI50 (HCT-116) | GI50 (SF-539) | GI50 (PC-3) | half-life [2] |
| --- | --- | --- | --- | --- | --- | --- | --- | --- | --- | --- |
| COC(=O)CCCC(=O)O[C@@H]1C[C@@H]2[C@H](/C=C/CCC[C@H](C)OC(=O)/C=C/[C@H]2OC(=O)CCCC(=O)OC)C1 | 12900 nM | 3020 nM | 4470 nM | 5100 nM | 2570 nM | 600 nM | 3470 nM | 5010 nM | 5010 nM |  |
| C[C@H]1CCC/C=C/[C@@H]2C[C@H](O)C[C@H]2[C@H](O)/C=C/C(=O)O1 [BREFELDIN A] | 40 nM |  | 20 nM | 40 nM | 20 nM | 30 nM | 30 nM |  | 50 nM | > 1440 min |
| CC(=O)O[C@@H]1C[C@@H]2[C@H](/C=C/CCC[C@H](C)OC(=O)/C=C/[C@H]2OC(C)=O)C1 | 850 nM | 10 nM | 10 nM | 450 nM | 2630 nM | 1480 nM | 22900 nM | 58900 nM | 2140 nM |  |
| C[C@H]1CCC/C=C/[C@@H]2C[C@H](OC(=O)CCCC(=O)O)C[C@H]2[C@H](O)/C=C/C(=O)O1 | 33200 nM | 32400 nM |  | 13000 nM | 19000 nM | 20400 nM | 21400 nM | 22400 nM | 19500 nM | > 1440 min |
| CC(=O)O[C@@H]1C[C@H]2[C@H](O)/C=C/C(=O)O[C@@H](C)CCC/C=C/[C@@H]2C1 | 10 nM | 10 nM | 10 nM | 40 nM | 20 nM | 10 nM | 1150 nM | 5250 nM | 40 nM | 30 min |
| C[C@H]1CCC/C=C/[C@@H]2C[C@H](OC(=O)CCCC(=O)O)C[C@H]2[C@H](OC(=O)CCCC(=O)O)/C=C/C(=O)O1 | > 100000 nM | > 100000 nM | > 100000 nM | 97700 nM | > 100000 nM | > 100000 nM | > 100000 nM | > 100000 nM | > 100000 nM |  |
| C[C@H]1CCC/C=C/[C@@H]2C[C@H](O)C[C@H]2[C@H](OC(=O)CCCC(=O)O)/C=C/C(=O)O1 | 33100 nM | 30200 nM | 31600 nM | 29500 nM | 39800 nM | 36300 nM | 25700 nM | 31600 nM | 43600 nM |  |
| COC(=O)CCCC(=O)O[C@@H]1/C=C/C(=O)O[C@@H](C)CCC/C=C/[C@@H]2C[C@H](O)C[C@H]21 | 4170 nM | 10 nM | 10 nM | 160 nM | 310 nM | 2400 nM | 3470 nM | 3390 nM | 40 nM |  |
| C[C@H]1CCC/C=C/[C@@H]2C[C@H](OC(=O)CCCC(=O)NCCCCCCO)C[C@H]2[C@H](O)/C=C/C(=O)O1 | 700 nM |  |  | 470 nM | 180 nM |  | 650 nM |  | 330 nM |  |
| COC(=O)CCCC(=O)O[C@@H]1C[C@H]2[C@H](O)/C=C/C(=O)O[C@@H](C)CCC/C=C/[C@@H]2C1 | 50 nM | 200 nM | 130 nM | 110 nM | 40 nM | 30 nM | 40 nM | 70 nM | 60 nM | 3 min |
